Among the data in patent US20240391926A1, “SPIROINDOLINONE COMPOUNDS AS Kv1.3 POTASSIUM SHAKER CHANNEL BLOCKERS” (D.E. Shaw Research, LLC, priority 2021, published 2024) are IC50 values, retold here.

In this test the target is T1, Kv1.3 potassium channel (Homo sapiens, UniProt P22001).
T1 construct: expressed in transfected cells
The experiment in a line: Kv1.3 potassium channel blocker activity, automated whole-cell patch clamp (Patchliner) in CHO-K1 cells stably expressing Kv1.3. In kind it is cell-based. The note with it: 30 nM-100 μM. Here is the method: This assay is used to evaluate the disclosed compounds' activities as Kv1.3 potassium channel blockers.
CHO-K1 cells stably expressing Kv1.3 were grown in DMEM containing 10% heat-inactivated FBS, 1 mM sodium pyruvate, 2 mM L-glutamine, and G418 (500 μg/ml). Cells were grown in culture flasks at 37° C. in a 5% CO2-humidified incubator.
The cells were bathed in an extracellular solution containing 140 mM NaCl, 4 mM KCl, 2 mM CaCl2), 1 mM MgCl2, 5 mM glucose, 10 mM HEPES; pH adjusted to 7.4 with NaOH; 295-305 mOsm. The internal solution contained 50 mM KCl, 10 mM NaCl, 60 mM KF, 20 mM EGTA, 10 mM HEPES; pH adjusted to 7.2 with KOH; 285 mOsm. All compounds were dissolved in DMSO at 30 mM. Compound stock solutions were freshly diluted with external solution to concentrations of 30 nM, 100 nM, 300 nM, 1 μM, 3 μM, 10 μM, 30 μM and 100 μM. The highest content of DMSO (0.3%) was present in 100 μM.
The currents were evoked by applying 100 ms depolarizing pulses from −90 mV (holding potential) to +40 mV were applied with 0.1 Hz frequency. Control (compound-free) and compound pulse trains for each compound concentration applied contained 20 pulses. 10-second breaks were used between pulse trains (see Table A below).
Whole-cell current recordings and compound application were enabled by means of an automated patch clamp platform Patchliner (Nanion Technologies GmbH). EPC 10 patch clamp amplifier (HEKA Elektronik Dr. Schulze GmbH) along with Patchmaster software (HEKA Elektronik Dr. Schulze GmbH) was used for data acquisition. Data were sampled at 10 kHz without filtering. Passive leak currents were subtracted online using a P/4 procedure (HEKA Elektronik Dr. Schulze GmbH). Increasing compound concentrations were applied consecutively to the same cell without washouts in between. Total compound incubation time before the next pulse train was not longer than 10 seconds. Peak current inhibition was observed during compound equilibration.
AUC and peak values were obtained with Patchmaster (HEKA Elektronik Dr. Schulze GmbH). To determine IC50, the last single pulse in the pulse train corresponding to a given compound concentration was used. Obtained AUC and peak values in the presence of compound were normalized to control values in the absence of compound. Using Origin (OridinLab), IC50 was derived from data fit to Hill equation: Icompound/Icontrol=(100−A)/(1+([compound]/IC50)nH)+A, where IC50 value is the concentration at which current inhibition is half-maximal, [compound] is the applied compound concentration, A is the fraction of current that is not blocked and nH is the Hill coefficient.
A general note: The patch-clamp technique gives a direct electrical read-out from membranes.

pIC50: −log10 of the molar value.

T1 sequence (P22001 whole entry): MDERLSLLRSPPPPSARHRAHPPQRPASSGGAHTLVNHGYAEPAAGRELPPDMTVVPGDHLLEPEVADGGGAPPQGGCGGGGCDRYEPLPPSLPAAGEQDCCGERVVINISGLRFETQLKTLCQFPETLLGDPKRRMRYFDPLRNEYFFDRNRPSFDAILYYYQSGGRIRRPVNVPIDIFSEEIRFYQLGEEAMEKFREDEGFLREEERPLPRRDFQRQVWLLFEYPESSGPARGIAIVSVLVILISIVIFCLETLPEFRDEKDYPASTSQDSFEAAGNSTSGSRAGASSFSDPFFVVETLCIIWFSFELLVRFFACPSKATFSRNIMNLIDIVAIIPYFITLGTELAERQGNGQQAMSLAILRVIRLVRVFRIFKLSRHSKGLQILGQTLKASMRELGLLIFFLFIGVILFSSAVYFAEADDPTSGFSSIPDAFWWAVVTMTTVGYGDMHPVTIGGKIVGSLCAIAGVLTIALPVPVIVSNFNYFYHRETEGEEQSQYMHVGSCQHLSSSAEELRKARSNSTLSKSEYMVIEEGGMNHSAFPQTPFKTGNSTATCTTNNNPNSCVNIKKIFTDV

Turning to `N[C@@H](CO)C(=O)N1CC[C@]2(C1)C(=O)Nc1cc(Cl)c(Cl)cc12` [Compound 36, (S)-1′-(L-Seryl)-5,6-dichlorospiro[indoline-3,3′-pyrrolidin]-2-one], the pIC50 (as a rule, −log10 of the IC50, conventionally taken in molar units) is more than 6.00.

In turn, `O=C(CO)N1CC[C@@]2(C1)C(=O)Nc1cc(Cl)c(Br)cc12` [Compound 117, (R)-5-bromo-6-chloro-1′-(2-hydroxyacetyl)spiro[indoline-3,3′-pyrrolidin]-2-one] gave a pIC50 of more than 5.00. Next, `O=C([C@@H]1CCOC1)N1CC[C@]2(C1)C(=O)Nc1cc(Cl)c(Cl)cc12` [Compound 24, (S)-5,6-dichloro-1′-((R)-tetrahydrofuran-3-carbonyl)Spiro[indoline-3,3′-pyrrolidin]-2-one]: more than 5.52; `Nc1nnc(N2CC[C@]3(C2)C(=O)Nc2cc(Cl)c(Cl)cc23)o1` [Compound 132, (S)-1′-(5-amino-1,3,4-oxadiazol-2-yl)-5,6-dichlorospiro[indoline-3,3′-pyrrolidin]-2-one]: more than 5.52; `Nc1ccnc(N2CC[C@]3(C2)C(=O)Nc2cc(Cl)c(Cl)cc23)n1` [Compound 139, (S)-1′-(4-aminopyrimidin-2-yl)-5,6-dichlorospiro[indoline-3,3′-pyrrolidin]-2-one]: more than 6.00. With `O=C(c1cn[nH]c1CO)N1CC[C@]2(C1)C(=O)Nc1cc(Cl)c(Cl)cc12` [Compound 80, (S)-5,6-dichloro-1′-(5-(hydroxymethyl)-1H-pyrazole-4-carbonyl)spiro[indoline-3,3′-pyrrolidin]-2-one], the pIC50 is more than 6.00.

Regarding `O=C(Cc1cn[nH]c1)N1CC[C@]2(C1)C(=O)Nc1cc(Cl)c(Cl)cc12` [Compound 72, (S)-1′-(2-(1H-pyrazol-4-yl)acetyl)-5,6-dichlorospiro[indoline-3,3′-pyrrolidin]-2-one], the pIC50 was more than 5.52.

With `O=C1Nc2cc(Cl)c(Cl)cc2[C@]12CCN(c1cnccn1)C2` [Compound 149, (S)-5,6-dichloro-1′-(pyrazin-2-yl)spiro[indoline-3,3′-pyrrolidin]-2-one], the pIC50 was more than 5.52. Next, `O=C([C@@H]1CCCN1)N1CC[C@]2(C1)C(=O)Nc1cc(Cl)c(Cl)cc12` [Compound 22, (S)-1′-(L-prolyl)-5,6-dichlorospiro[indoline-3,3′-pyrrolidin]-2-one]: more than 6.00; `O=C(CO)N1CC[C@@]2(C1)C(=O)Nc1c2cc(Cl)c(Cl)c1Cl` [Compound 122, (3R)-5,6,7-trichloro-1′-(2-hydroxyacetyl)-1H-spiro[indole-3,3′-pyrrolidin]-2-one]: more than 5.52. The molecule `COC[C@@H]1C[C@@H](C(=O)N2CC[C@]3(C2)C(=O)Nc2cc(Cl)c(Cl)cc23)CN1` [Compound 110, (3S)-5,6-dichloro-1′-[(3R,5S)-5-(methoxymethyl)pyrrolidine-3-carbonyl]-1H-spiro[indole-3,3′-pyrrolidin]-2-one] had a negative-log IC50 (pIC50) of more than 6.00.

With `CC(C)C[C@H](N)C(=O)N1CC[C@]2(C1)C(=O)Nc1cc(Cl)c(Cl)cc12` [Compound 45, (S)-1′-(L-leucyl)-5,6-dichlorospiro[indoline-3,3′-pyrrolidin]-2-one], the negative logarithm of the IC50 (pIC50) was more than 5.52. Consider `O=C(C[C@H](O)CO)N1CC[C@]2(C1)C(=O)Nc1cc(Cl)c(Cl)cc12` [Compound 76, (S)-5,6-dichloro-1′-((S)-3,4-dihydroxybutanoyl)spiro[indoline-3,3′-pyrrolidin]-2-one], for which the negative logarithm of the IC50 (pIC50) was more than 5.52. `O=C1C[C@H](C(=O)N2CC[C@]3(C2)C(=O)Nc2cc(Cl)c(Cl)cc23)CN1` (single isomer, unassigned; isomer 1) [Compound 74] showed a pIC50 of more than 6.00. With `O=C([C@H]1CNC[C@@H]1O)N1CC[C@]2(C1)C(=O)Nc1cc(Cl)c(Cl)cc12` (single isomer, unassigned) [Compound 4] the figure was more than 6.00; with `C[C@H]1N(C(=O)CO)CCC12C(=O)Nc1cc(Cl)c(Cl)cc12` (single isomer, unassigned; diastereoisomer 2) [Compound 134, 5,6-dichloro-1′-(2-hydroxyacetyl)-2′-methylspiro[indoline-3,3′-pyrrolidin]-2-one diastereoisomer 2], more than 5.00; with `O=C1Nc2cc(Cl)c(Cl)cc2[C@]12CCN(S(=O)(=O)CCO)C2` [Compound 138, (3S)-5,6-dichloro-1′-(2-hydroxyethanesulfonyl)-1H-spiro[indole-3,3′-pyrrolidin]-2-one], more than 6.00. With `C[C@@H]1C[C@@]2(CN1C(=O)CO)C(=O)Nc1cc(Cl)c(Cl)cc12` (single isomer, unassigned; isomer 2) [Compound 124, 5,6-dichloro-1′-(2-hydroxyacetyl)-5′-methyl-1H-spiro[indole-3,3′-pyrrolidin]-2-one isomer 2] the figure was more than 5.00. With `Cn1cc(C(=O)N2CC[C@]3(C2)C(=O)Nc2cc(Cl)c(Cl)cc23)cn1` [Compound 69, (S)-5,6-dichloro-1′-(1-methyl-1H-pyrazole-4-carbonyl)spiro[indoline-3,3′-pyrrolidin]-2-one] the figure was more than 5.00; with `COC[C@H]1C[C@@H](C(=O)N2CC[C@]3(C2)C(=O)Nc2cc(Cl)c(Cl)cc23)CN1` [Compound 111, (S)-5,6-dichloro-1′-((3R,5R)-5-(methoxymethyl)pyrrolidine-3-carbonyl)spiro[indoline-3,3′-pyrrolidin]-2-one], more than 6.00. `Nc1[nH]ncc1C(=O)N1CC[C@]2(C1)C(=O)Nc1cc(Cl)c(Cl)cc12` [Compound 70, (S)-1′-(5-amino-1H-pyrazole-4-carbonyl)-5,6-dichlorospiro[indoline-3,3′-pyrrolidin]-2-one]: the negative-log IC50 (pIC50) is more than 5.52. With `O=C([C@@H]1C[C@H]1CO)N1CC[C@]2(C1)C(=O)Nc1cc(Cl)c(Cl)cc12` (relative stereo) [Compound 150, (S)-5,6-dichloro-1′-(1R,2R)-rel-2-(hydroxymethyl)cyclopropane-1-carbonyl)spiro[indoline-3,3′-pyrrolidin]-2-one] the figure was more than 6.00. Turning to `O=C([C@H]1CNCCO1)N1CC[C@]2(C1)C(=O)Nc1cc(Cl)c(Cl)cc12` [Compound 10, (S)-5,6-dichloro-1′-((R)-morpholine-2-carbonyl)spiro[indoline-3,3′-pyrrolidin]-2-one], the pIC50 is more than 6.00. Consider `O=C([C@@H]1C[C@@H]1CO)N1CC[C@]2(C1)C(=O)Nc1cc(Cl)c(Cl)cc12` (relative stereo) [Compound 151, (S)-5,6-dichloro-1′-(1R,2S)-rel-2-(hydroxymethyl)cyclopropane-1-carbonyl)spiro[indoline-3,3′-pyrrolidin]-2-one], for which the pIC50 is more than 6.00.

In turn, `O=C1CC(C(=O)N2CC[C@]3(C2)C(=O)Nc2cc(Cl)c(Cl)cc23)CN1` (single isomer, unassigned; isomer 2) [Compound 75] gave a pIC50 of more than 5.52. With `CNCC(=O)N1CC[C@]2(C1)C(=O)Nc1cc(Cl)c(Cl)cc12` [Compound 18, (S)-5,6-dichloro-1′-(methylglycyl)spiro[indoline-3,3′-pyrrolidin]-2-one] the figure was more than 5.52; with `NC(=O)N1CC[C@]2(C1)C(=O)Nc1cc(Cl)c(Cl)cc12` (single isomer, unassigned) [Compound 154], more than 6.00.

`CC(C)(O)CC(=O)N1CC[C@]2(C1)C(=O)Nc1cc(Cl)c(Cl)cc12` [Compound 87, (S)-5,6-dichloro-1′-(3-hydroxy-3-methylbutanoyl)spiro[indoline-3,3′-pyrrolidin]-2-one] gave a pIC50 of more than 5.00.
